# Experimental data: US20080194470A1, “Nim811 In Cerebral Ischemia and Brain and Spinal Cord Injury” (Novartis AG, priority 2004, published 2008)
# Test system: isolated rodent brain-derived mitochondria
# Conditions: under energized and de-energized conditions; comparable to the effects of cyclosporine A
# Excerpt: Spinal cord injury model (in vivo) • Adult Lewis rats are injured microsurgically by transecting the dorsal half of the spinal cord bilaterally at the level of the eighth thoracic vertebra. Laminectomy, anesthesia and surgery are described in Schnell and Schwab, Eur J Neurosci, Vol. 5, pp. 1156-1171 (1993). […] Tamura et al., J Cereb Blood Flow Metabol, Vol. 1, pp. 53-60 (1981); and Sauter and Rudin, Stroke, Vol. 17, pp. 1228-1234 (1986)]. • 3. Inhibition of mitochondrial permeability transition in isolated rodent brain-derived mitochondria and prevention of cell death in an in vitro model of ischemic brain damage, e.g. as described in Rytter et al., JCBF, Vol. 23, pp. 23-33.
row,Substance,inhibition of calcium-induced mitochondrial swelling
1,[Melle]^4-Ciclosporin,inhibitors of calcium-induced mitochondrial swelling
2,[γ-hydroxy-MeLeu]^4-Ciclosporin,inhibitors of calcium-induced mitochondrial swelling
